Experimental data published in patent US8242275B2, “Bicyclic pyrazole compounds as antibacterial agents” (Janssen Pharmaceutica NV, priority 2005, dated 2012).
Converted amounts (≈) assume the structure as drawn. Like-named read-outs stand apart in the source and are kept apart here.

How the values were obtained:
S. aureus ATCC13709 = assay: In vitro antibacterial activity (MIC assay), broth microdilution; type: cell-based; conditions: Staphylococcus aureus, ATCC13709; read-out: S. aureus ATCC13709 MIC
In short: (§1)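 Bacteria at roughly 5×10^5 CFU/mL final were grown 16–24 h at 35° C in wells holding 2-fold serial dilutions (11 points) of compound prepared in 100% DMSO, following NCCLS M7-A5. MIC, in μg/mL, is the concentration that stops visible growth relative to untreated wells.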

S. pneumoniae ATCC49619 = assay: as above; type: cell-based; conditions: Streptococcus pneumoniae, ATCC49619; read-out: S. pneumoniae ATCC49619 MIC
In short: as §1

E. coli ATCC25922 = assay: as above; type: cell-based; conditions: Escherichia coli; obtained with E. coli ATCC25922; read-out: E. coli MIC, data marked (*)
In short: as §1

CipR MRSA OC4222 = assay: Resistant strains assay (broth microdilution MIC); type: cell-based; conditions: Staphylococcus aureus, read-out: MIC, Column G
From the text: (§2) Testing protocols followed NCCLS methodology for broth microdilution assays.

[1] = system: E. coli KL-16 (GSC strain 4245); assay: In vitro antibacterial activity (MIC assay), broth microdilution; type: cell-based; conditions: Escherichia coli
In short: as §1

CipR MRSA OC5273 = assay: Resistant strains assay (broth microdilution MIC); type: cell-based; conditions: Staphylococcus aureus, read-out: MIC, Column H
From the text: as §2

MRSA OC3726 (COL) = assay: Resistant strains assay (broth microdilution MIC); type: cell-based; conditions: Staphylococcus aureus, read-out: MIC, Column C
From the text: as §2

CipR MRSA OC4159 = assay: Resistant strains assay (broth microdilution MIC); type: cell-based; conditions: Staphylococcus aureus, read-out: MIC, Column F
From the text: as §2

MRSA OC2878 = assay: Resistant strains assay (broth microdilution MIC); type: cell-based; conditions: Staphylococcus aureus, read-out: MIC, Column D
From the text: as §2

E. coli DNA gyrase = biological target: T1, E. coli DNA gyrase (Escherichia coli, UniProt P0AES4+P0AES6); assay: DNA gyrase inhibition assay (supercoiling); type: biochemical; conditions: E. coli DNA gyrase supercoiling, visual inspection of gels; read-out: DNA Gyrase IC50 (converted)
T1 construct: purchased John Innes Enterprises Ltd. (John Innes Centre, UK)
In short: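 Agarose-gel (1.0%, ethidium-stained) readout of supercoiled versus relaxed pBR322 after 30 min at 37° C. Each reaction held 250 ng DNA, 0.2 unit enzyme, 1 mM ATP, 4 mM MgCl2, 24 mM KCl in 35 mM Tris-HCl pH 7.5, and compound at 0.5% DMSO final.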

E. coli topoisomerase IV = biological target: T2, E. coli topoisomerase IV (Escherichia coli, UniProt P0AFI2+P20083); assay: Topoisomerase IV inhibition assay (relaxation); type: biochemical; conditions: E. coli topoisomerase IV relaxation, visual inspection of gels; read-out: Topoisomerase IV IC50 (converted)
T2 construct: purchased John Innes Enterprises Ltd. (John Innes Centre, UK)
Description: Inhibition of the relaxation activity of E. coli topoisomerase IV was determined using enzyme, buffers and substrates received from John Innes Enterprises Ltd. (John Innes Centre, UK). The reactions were performed according to the manufacturer's directions, with the following modifications.
DNA relaxation reactions were carried out in a total reaction volume of 20 μL, containing 300 ng of supercoiled pBR322, 40 mM HEPES-KOH (pH 7.6), 100 mM potassium glutamate, 10 mM Mg(OAc)2, 10 mM DTT, 4 μg/mL tRNA, 2 mM ATP, and 50 μg/mL BSA. Compounds, diluted in 10% DMSO, were added to the reaction mixture to reach a final concentration of 0.5% DMSO. Enzyme was diluted to 0.45 unit/μL in a solution of 40 mM HEPES-KOH (pH 7.6), 150 mM potassium glutamate, 1 mM DTT, 1 mM EDTA, and 40% glycerol. Diluted enzyme (0.9 unit) was added to each reaction.
The reactions were incubated at 37° C. for 45 min. The reactions were then cooled to 0° C. followed by addition of 3 μL of 40% glycerol, 100 mM Tris-HCl (pH 7.5), 50 mM EDTA, 0.5% SDS and 0.1% bromophenol blue. Samples were separated on 1.0% agarose gels. Gels were stained with Ethidium bromide and photographed with a Stratagene Eagle Eye II.

MSSA ATCC 29213 = assay: Resistant strains assay (broth microdilution MIC); type: cell-based; conditions: Staphylococcus aureus, read-out: MIC, Column B
Description: (§3) Compounds of the present invention were tested for activity against susceptible and resistant bacterial strains in vitro, and activity was compared to known anti-bacterial agents. Testing protocols followed NCCLS methodology for broth microdilution assays. MIC values in μg/mL are presented in Table 3 for the following strains: Column A: MSSA ATCC13709 (Smith); Column B: MSSA ATCC 29213; Column C: MRSA OC3726 (COL); Column D: MRSA OC2878.

MSSA ATCC13709 (Smith) = assay: Resistant strains assay (broth microdilution MIC); type: cell-based; conditions: Staphylococcus aureus
Description: as §3

CipR MRSA OC3946 = assay: Resistant strains assay (broth microdilution MIC); type: cell-based; conditions: Staphylococcus aureus, read-out: MIC, Column E
Description: as §3
MIC values in μg/mL are presented in Table 4 for the following strains: Column E: CipR MRSA OC3946; Column F: CipR MRSA OC4159; Column G: CipR MRSA OC4222; Column H: CipR MRSA OC5273.

T2 sequence (P0AFI2 whole entry): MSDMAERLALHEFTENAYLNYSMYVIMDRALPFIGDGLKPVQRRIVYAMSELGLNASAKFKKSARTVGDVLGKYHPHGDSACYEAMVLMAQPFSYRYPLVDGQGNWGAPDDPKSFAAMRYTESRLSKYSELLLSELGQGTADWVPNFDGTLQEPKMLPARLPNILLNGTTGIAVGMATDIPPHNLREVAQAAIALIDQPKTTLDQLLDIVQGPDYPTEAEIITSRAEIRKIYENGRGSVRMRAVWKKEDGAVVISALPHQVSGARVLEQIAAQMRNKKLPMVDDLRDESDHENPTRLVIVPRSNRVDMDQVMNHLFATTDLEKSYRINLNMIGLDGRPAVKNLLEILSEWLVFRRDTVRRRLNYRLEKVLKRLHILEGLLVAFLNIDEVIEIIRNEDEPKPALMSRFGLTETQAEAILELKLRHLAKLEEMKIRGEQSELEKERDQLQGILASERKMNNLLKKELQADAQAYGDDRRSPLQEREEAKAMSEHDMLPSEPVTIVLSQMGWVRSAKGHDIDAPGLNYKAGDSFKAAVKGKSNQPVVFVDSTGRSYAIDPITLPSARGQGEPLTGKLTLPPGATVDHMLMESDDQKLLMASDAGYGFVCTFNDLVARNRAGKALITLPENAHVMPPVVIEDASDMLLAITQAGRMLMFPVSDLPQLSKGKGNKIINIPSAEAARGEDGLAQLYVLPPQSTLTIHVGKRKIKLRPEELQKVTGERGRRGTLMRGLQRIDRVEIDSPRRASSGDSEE
T2 sequence (P20083 whole entry): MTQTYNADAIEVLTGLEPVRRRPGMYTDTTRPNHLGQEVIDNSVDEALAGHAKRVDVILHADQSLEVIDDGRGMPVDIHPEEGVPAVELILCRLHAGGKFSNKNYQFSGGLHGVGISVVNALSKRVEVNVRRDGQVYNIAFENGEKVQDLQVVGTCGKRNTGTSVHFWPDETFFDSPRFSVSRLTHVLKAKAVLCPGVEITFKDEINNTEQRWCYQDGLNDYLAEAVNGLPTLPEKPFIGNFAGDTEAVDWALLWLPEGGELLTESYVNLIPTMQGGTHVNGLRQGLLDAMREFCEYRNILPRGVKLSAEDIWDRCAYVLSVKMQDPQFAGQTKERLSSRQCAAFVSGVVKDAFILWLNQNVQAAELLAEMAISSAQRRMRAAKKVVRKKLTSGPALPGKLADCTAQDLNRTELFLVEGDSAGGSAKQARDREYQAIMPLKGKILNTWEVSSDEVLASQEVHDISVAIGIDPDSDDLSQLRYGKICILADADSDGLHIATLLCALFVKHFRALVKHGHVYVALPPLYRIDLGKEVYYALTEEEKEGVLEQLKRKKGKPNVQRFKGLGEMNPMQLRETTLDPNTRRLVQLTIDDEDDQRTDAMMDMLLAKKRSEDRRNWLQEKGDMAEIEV

MIC (E. coli ATCC25922) [µg/mL]	Structure (SMILES)	MIC (S. aureus ATCC13709) [µg/mL]	MIC (S. pneumoniae ATCC49619) [µg/mL]	MIC (CipR MRSA OC4222; CipR MRSA OC4222) [µg/mL]	MIC [1] [µg/mL]	MIC (CipR MRSA OC5273) [µg/mL]	MIC (MRSA OC3726 (COL); MRSA OC3726 (COL)) [µg/mL]	MIC (CipR MRSA OC4159) [µg/mL]	MIC (MRSA OC2878; MRSA OC2878) [µg/mL]	IC50 (E. coli DNA gyrase) [nM]	IC50 (E. coli topoisomerase IV) [nM]	MIC (MSSA ATCC 29213) [µg/mL]	MIC (MSSA ATCC13709 (Smith)) [µg/mL]	MIC (CipR MRSA OC3946; CipR MRSA OC3946) [µg/mL]	MIC (CipR MRSA OC4222; MRSA) [µg/mL]	MIC (CipR MRSA OC3946; MRSA) [µg/mL]	MIC (MRSA OC3726 (COL); MRSA) [µg/mL]	MIC (MRSA OC2878; MRSA) [µg/mL]
> 16	COc1ccc2nccc(-n3cc4c(n3)CCC(NC(=O)c3ccc5c(c3)NC(=O)C(C)(C)S5)C4)c2c1 (stereo not drawn) [Example 129, 2,2-Dimethyl-3-oxo-3,4-dihydro-2H-benzo[1,4]thiazine-6-carboxylic acid [2-(6-methoxy-quinolin-4-yl)-4,5,6,7-tetrahydro-2H-indazol-5-yl]-amide]	1 (≈ 1.95 µM)	4 (≈ 7.79 µM)	1 (≈ 1.95 µM)	–	–	–	–	–	–	–	–	–	–	–	–	–	–
8 (≈ 16.8 µM)	COc1ccc2nccc(-n3cc4c(n3)CCC(NCc3cc5c(cc3F)SCCN5)C4)c2n1 (stereo not drawn) [Example 107, (7-Fluoro-3,4-dihydro-2H-benzo[1,4]thiazin-6-ylmethyl)-[2-(6-methoxy-[1,5]naphthyridin-4-yl)-4,5,6,7-tetrahydro-2H-indazol-5-yl]-amine]	0.25 (≈ 0.525 µM)	2 (≈ 4.2 µM)	0.5 (≈ 1.05 µM)	–	–	–	–	–	–	–	–	–	–	–	–	–	–
–	COc1ccc2nccc(-n3cc4c(n3)CCC(NC(=O)c3ccc5c(c3)NC(=O)CS5)C4)c2n1 (stereo not drawn) [Example 4, 3-Oxo-3,4-dihydro-2H-benzo[1,4]thiazine-6-carboxylic acid [2-(6-methoxy-[1,5]naphthyridin-4-yl)-4,5,6,7-tetrahydro-2H-indazol-5-yl]-amide]	0.06 (≈ 0.123 µM)	4 (≈ 8.22 µM)	0.5 (≈ 1.03 µM)	> 128	0.062 (≈ 0.127 µM)	0.062 (≈ 0.127 µM)	0.5 (≈ 1.03 µM)	0.031 (≈ 0.0637 µM)	514	514	1 (≈ 2.06 µM)	0.06 (≈ 0.123 µM)	0.007 (≈ 0.0144 µM)	–	–	–	–
> 16	COc1ccc2nccc(-n3cc4c(n3)CCC(NC(=O)c3cc5c(cc3C(=O)O)SCC(=O)N5)C4)c2n1 (stereo not drawn) [Example 138, 6-[2-(6-Methoxy-[1,5]naphthyridin-4-yl)-4,5,6,7-tetrahydro-2H-indazol-5-ylcarbamoyl]-3-oxo-3,4-dihydro-2H-benzo[1,4]thiazine-7-carboxylic acid]	0.5 (≈ 0.942 µM)	16 (≈ 30.2 µM)	0.5 (≈ 0.942 µM)	–	–	–	–	–	–	–	–	–	–	–	–	–	–
–	COc1ccc2nccc(-n3cc4c(n3)CCC(NCc3ccc5c(c3)NC(=O)CS5)C4)c2c1 (stereo not drawn) [Example 52, 6-{[2-(6-Methoxy-quinolin-4-yl)-4,5,6,7-tetrahydro-2H-indazol-5-ylamino]-methyl}-4H-benzo[1,4]thiazin-3-one]	0.25 (≈ 0.53 µM)	1 (≈ 2.12 µM)	–	2 (≈ 4.24 µM)	0.5 (≈ 1.06 µM)	0.5 (≈ 1.06 µM)	0.25 (≈ 0.53 µM)	0.5 (≈ 1.06 µM)	265	63.6	1 (≈ 2.12 µM)	0.25 (≈ 0.53 µM)	–	0.125 (≈ 0.265 µM)	0.125 (≈ 0.265 µM)	–	–
> 16	COc1ccc2nccc(-n3ncc4c3CCC(NC(=O)c3cc5c(cc3C)SCC(=O)N5)C4)c2c1 (stereo not drawn) [Example 132, 7-Methyl-3-oxo-3,4-dihydro-2H-benzo[1,4]thiazine-6-carboxylic acid [1-(6-methoxy-quinolin-4-yl)-4,5,6,7-tetrahydro-1H-indazol-5-yl]-amide]	2 (≈ 4 µM)	> 16	2 (≈ 4 µM)	–	–	–	–	–	–	–	–	–	–	–	–	–	–
–	COc1ccc2nccc(-n3cc4c(n3)CCC(NC(=O)c3ccc5c(c3)NC(=O)CS5)C4)c2c1 (stereo not drawn) [Example 17, 3-Oxo-3,4-dihydro-2H-benzo[1,4]thiazine-6-carboxylic acid [2-(6-methoxy-quinolin-4-yl)-4,5,6,7-tetrahydro-2H-indazol-5-yl]-amide]	0.25 (≈ 0.515 µM)	2 (≈ 4.12 µM)	0.062 (≈ 0.128 µM)	4 (≈ 8.24 µM)	0.25 (≈ 0.515 µM)	–	0.031 (≈ 0.0638 µM)	–	247	257	0.062 (≈ 0.128 µM)	0.25 (≈ 0.515 µM)	0.015 (≈ 0.0309 µM)	–	–	0.125 (≈ 0.257 µM)	0.125 (≈ 0.257 µM)
–	COc1ccc2nccc(-n3cc4c(n3)CCC(NCc3ccc5c(c3)NC(=O)CS5)C4)c2n1 (stereo not drawn) [Example 41, 6-{[2-(6-Methoxy-[1,5]naphthyridin-4-yl)-4,5,6,7-tetrahydro-2H-indazol-5-ylamino]-methyl}-4H-benzo[1,4]thiazin-3-one]	0.25 (≈ 0.529 µM)	2 (≈ 4.23 µM)	0.25 (≈ 0.529 µM)	2 (≈ 4.23 µM)	0.5 (≈ 1.06 µM)	1 (≈ 2.12 µM)	0.25 (≈ 0.529 µM)	0.5 (≈ 1.06 µM)	127	33.9	0.25 (≈ 0.529 µM)	0.25 (≈ 0.529 µM)	0.25 (≈ 0.529 µM)	–	–	–	–
> 16	COc1ccc2nccc(-n3cc4c(n3)CCC(NC(=O)c3cc5c(cc3OC)SCC(=O)N5)C4)c2n1 (stereo not drawn) [Example 130, 7-Methoxy-3-oxo-3,4-dihydro-2H-benzo[1,4]thiazine-6-carboxylic acid [2-(6-methoxy-[1,5]naphthyridin-4-yl)-4,5,6,7-tetrahydro-2H-indazol-5-yl]-amide]	2 (≈ 3.87 µM)	16 (≈ 31 µM)	2 (≈ 3.87 µM)	–	–	–	–	–	–	–	–	–	–	–	–	–	–
–	COc1ccc2nccc(-n3cc4c(n3)CCC(NCc3ccc5c(c3)OCCO5)C4)c2c1 (stereo not drawn) [Example 50, (2,3-Dihydro-benzo[1,4]dioxin-6-ylmethyl)-[2-(6-methoxy-quinolin-4-yl)-4,5,6,7-tetrahydro-2H-indazol-5-yl]-amine]	0.5 (≈ 1.13 µM)	1 (≈ 2.26 µM)	16 (≈ 36.2 µM)	128 (≈ 289 µM)	1 (≈ 2.26 µM)	1 (≈ 2.26 µM)	16 (≈ 36.2 µM)	0.5 (≈ 1.13 µM)	4520	136	16 (≈ 36.2 µM)	0.5 (≈ 1.13 µM)	0.5 (≈ 1.13 µM)	–	–	–	–
–	O=C1CSc2ccc(C(=O)NC3CCc4nn(-c5cccc6cccnc56)cc4C3)cc2N1 (stereo not drawn) [Example 31, 3-Oxo-3,4-dihydro-2H-benzo[1,4]thiazine-6-carboxylic acid (2-quinolin-8-yl-4,5,6,7-tetrahydro-2H-indazol-5-yl)-amide]	0.25 (≈ 0.549 µM)	4 (≈ 8.78 µM)	4 (≈ 8.78 µM)	16 (≈ 35.1 µM)	0.5 (≈ 1.1 µM)	0.5 (≈ 1.1 µM)	4 (≈ 8.78 µM)	0.25 (≈ 0.549 µM)	4390	274	16 (≈ 35.1 µM)	0.25 (≈ 0.549 µM)	–	–	0.125 (≈ 0.274 µM)	–	–
–	COc1ccc2nccc(-n3cc4c(n3)CCC(NC/C=C/c3ccccc3)C4)c2n1 (stereo not drawn) [Example 46, [2-(6-Methoxy-[1,5]naphthyridin-4-yl)-4,5,6,7-tetrahydro-2H-indazol-5-yl]-(3-phenyl-allyl)-amine]	0.06 (≈ 0.146 µM)	< 0.125	0.062 (≈ 0.151 µM)	16 (≈ 38.9 µM)	0.125 (≈ 0.304 µM)	0.25 (≈ 0.608 µM)	0.062 (≈ 0.151 µM)	0.125 (≈ 0.304 µM)	292	< 36.5	8 (≈ 19.4 µM)	0.062 (≈ 0.151 µM)	0.062 (≈ 0.151 µM)	–	–	–	–
